Inhibition data for 19 compounds are collected here from US6552061B1, “Amino acid derivatives and anti-inflammatory agents” (Ajinomoto Co., Inc., priority 1998, dated 2003).

What all share (type): cell-based
The subject of one experiment is IL-1α. In words: Test for an Activity of Inhibiting IL-1α Expression (ELISA, UVB-irradiated human epidermal cells). Conditions: light or radiation study, 24 h, read-out: inhibitory rate (%) of IL-1α expression; for inhibition at 500 µM: concentration 0.5 mM; for inhibition at 1000 µM: concentration 1 mM; for inhibition at 10 µM: concentration 10 μM; for inhibition at 20 µM: concentration 20 μM; for inhibition at 50 µM: concentration 50 μM; for inhibition at 10000 µM: concentration 10 mM. As to the method: Test for an Activity of Inhibiting IL-1α Expression
(§1) The test compound was added to human epidermal cells which had become confluent in a culture plate. Eighteen hours later, the culture solution was replaced with a phenol red-free medium. The cells were subjected to UV irradiation (UVB: 50 mJ/cm^2) using Dermaray M-DMR-80 (supplied by Toshiba Iryo Yohin KK). After 24 hours passed, the culture solution was recovered, and the IL-1α concentration in the culture solution was measured using IL-1α·ELISA System (supplied by Amersham Corp.). The rate of inhibition of IL-1α expression on the test compound was calculated using formula (V).
Rate (%) of inhibition of IL-1α expression={1−(B1−B3)/(B2−B3)}×100 (V)
B1: IL-1α concentration in the addition of the test compound
B2: IL-1α concentration in the non-addition of the test compound
B3: IL-1α concentration when the test compound was not added, nor was UV irradiation conducted

A further experiment has as its system NF-κB. Kind of experiment: Test for an Activity of Inhibiting NF-κB Activation (gel shift assay, UVB-irradiated human epidermal cells). Particulars: light or radiation study, read-out: inhibitory rate (%) of NF-κB activation; for inhibition at 1000 µM: concentration 1 mM; for inhibition at 2000 µM: concentration 2 mM; for inhibition at 10 µM: concentration 10 μM; for inhibition at 50 µM: concentration 50 μM. How it is done: Test for an Activity of Inhibiting NF-κB Activation
(§2) Eighteen hours later, the culture solution was replaced with a phenol red-free medium. The cells were subjected to UV irradiation (UVB: 50 mJ/m^2)using Dermaray M-DMR-80 (supplied by Toshiba Iryo Yohin KK). After from 4 to 5 hours passed, the cells were recovered, and the nucleoproteins were extracted in a usual manner. With respect to the resulting nucleoproteins, NF-κB activated by gel shift assay was detected. The amount of NF-κB was determined by measuring a radioactivity of an NF-κB band using a bio-imaging analyzer BAS 2000 (supplied by Fuji Photo Film). The rate of inhibition of NF-κB activation on the test compound was calculated using formula (III).
Rate (%) of inhibition of NF-κB activation={1−(A1−A3)/(A2−A3)}×100 (III)
A1: radioactivity of an NF-κB band in the addition of the test compound
A2: radioactivity of an NF-κB band in the non-addition of the test compound
A3: radioactivity of an NF-κB band when the test compound was not added, nor was UV irradiation conducted
A general note: In EMSA bound probe runs differently from free probe, usually more slowly.

Another experiment deals with AP-1. Kind of experiment: Test for an Activity of Inhibiting AP-1 Activation (gel shift assay, UVA-irradiated human dermal fibroblasts). Particulars: AP1, light or radiation study, read-out: inhibitory rate (%) of AP-1 activation; for inhibition at 500 µM: concentration 0.5 mM; for inhibition at 1 µM: concentration 1 μM. As to the method:
Test for an Activity of Inhibiting AP-1 Activation
as §2, with “The test compound was added to human dermal fibroblasts which had become confluent in a culture plate. Eighteen” for “Eighteen”, “(UVA: 20 J/cm^2) using” for “(UVB: 50 mJ/m^2)using”, “AP-1” for “NF-κB”, “(IV).” for “(III).”
Rate (%) of inhibition of AP-1 activation={1−(A4−A6)/(A5−A6)}×100 (IV)
A4: radioactivity of an AP-1 band in the addition of the test compound
A5: radioactivity of an AP-1 band in the non-addition of the test compound
A6: radioactivity of an AP-1 band when the test compound was not added, nor was UV irradiation conducted

The next experiment concerns collagenase. In words: Test for an Activity of Inhibiting Collagenase Expression (MMP-1 ELISA, UVA-irradiated human dermal fibroblasts). Conditions: Fibroblast, light or radiation study, 24 h, read-out: inhibitory rate (%) of collagenase expression. How it is done:
Test for an Activity of Inhibiting Collagenase Expression
as §1, with “dermal fibroblasts” for “epidermal cells”, “(UVA; 20 J/cm^2)” for “(UVB: 50 mJ/cm^2)”, “collagenase” for “IL-1α”, “MMP-1α·ELISA” for “IL-1α·ELISA”, “(VI).” for “(V).”
Rate (%) of inhibition of collagenase expression={1−(B4−B6)/(B5−B6)}×100 (VI)
B4: collagenase concentration in the addition of the test compound
B5: collagenase concentration in the non-addition of the test compound
B6: collagenase concentration when the test compound was not added, nor was UV irradiation conducted
(An ELISA detects its analyte on a solid surface through an enzyme-linked reagent.)

Molecules are shown by their SMILES. Read-outs that look alike come from different tables or passages of the source.

Turning to `CCOC(=O)[C@@H]1CCC(=O)N1Cc1ccccc1O` [N-(2-hydroxybenzyl)-L-pyroglutamic acid ethyl ester], in the experiment with IL-1α, the inhibition at 500 µM amounted to 84% and the inhibition at 1000 µM was found to be 55%. In the experiment with NF-κB, the inhibition at 1000 µM turned out to be 53% and the inhibition at 2000 µM came out at 85%.
For the compound `C[C@H](NCc1ccccc1O)C(=O)O` [N-(2-hydroxybenzyl)-L-alanine], the inhibition at 1 µM in the experiment on IL-1α (concentration 1 μM) worked out at 14%. For the same compound, the inhibition at 10 µM in the experiment on IL-1α was found to be 100%. Also, in the experiment on NF-κB, the inhibition at 1000 µM was 20%.
Take `CCNC(=O)[C@H](C)NCc1ccccc1O` [N-(2-hydroxybenzyl)-L-alanine ethyl amide]: the inhibition at 500 µM in the experiment on IL-1α came out at 81%. Moreover, the inhibition at 1000 µM was 99% in the experiment with IL-1α, 43% with NF-κB and 52% in the experiment on AP-1 (concentration 1 mM). In addition, the inhibition at 2000 µM in the experiment on NF-κB turned out to be 26%; in the experiment on AP-1 (concentration 2 mM) it was 131%.
For `CC(C)OC(=O)[C@H](C)NCc1ccccc1O` [N-(2-hydroxybenzyl)-L-alanine isopropyl ester], the inhibition at 100 µM in the experiment with IL-1α (concentration 0.1 mM) came to 36%; in the experiment with AP-1 (concentration 0.1 mM) it was 20%. Further, in the experiment on IL-1α, the inhibition at 1000 µM is 53%. Also, in the experiment with AP-1, the inhibition at 500 µM came to 35%.
As for `S=C(S)N1CCCC1` [pyrrolidinedithiocarbamate, reference compound], the inhibition at 5 µM in the experiment on IL-1α (concentration 5 μM) is -45%; in the experiment on NF-κB (concentration 5 μM), -9%. The inhibition at 10 µM with NF-κB was 9%.
In the case of `CCCCCCCCCCCCNC(=O)[C@@H](C)NCc1ccccc1O` [N-(2-hydroxybenzyl)-D-alanine lauryl amide], the inhibition at 20 µM with IL-1α amounted to 25%; in the experiment on AP-1 (concentration 20 μM), 31%. For the same compound, the values for the inhibition at 50 µM in the experiment on IL-1α and with NF-κB were 79% and 97%, respectively. Further, in the experiment on NF-κB, the inhibition at 10 µM amounted to 29%. Further, the inhibition at 1 µM in the experiment on AP-1 was found to be 14%.
`CCOC(=O)[C@H](Cc1ccc(O)cc1)NCc1ccccc1O` [N-(2-hydroxybenzyl)-L-tyrosine ethyl ester]: the inhibition at 100 µM in the experiment with NF-κB (concentration 0.1 mM) stood at 64%. Besides, in the experiment on NF-κB (concentration 0.5 mM), the inhibition at 500 µM was found to be 81%.
For the compound `CCNC(=O)[C@H](Cc1ccc(O)cc1)NCc1ccccc1O` [N-(2-hydroxybenzyl)-L-tyrosine ethyl amide], in the experiment on NF-κB, the inhibition at 1000 µM turned out to be 72% and the inhibition at 2000 µM came out at 28%.
As for `CCOC(=O)[C@H](CC(C)C)NCc1ccccc1O` [N-(2-hydroxybenzyl)-L-leucine ethyl ester], in the experiment with NF-κB, the inhibition at 1000 µM stood at 84% and the inhibition at 2000 µM was found to be 57%.
As to `O=C(O)CNCc1ccccc1O` [N-(2-hydroxybenzyl)glycine], the inhibition at 5000 µM in the experiment with IL-1α (concentration 5 mM) turned out to be 26%; with NF-κB (concentration 5 mM), 36%. Besides, the inhibition at 10000 µM in the experiment with IL-1α was 88%.
Consider `CCCCCCCCCCCCOC(=O)[C@@H](C)NCc1ccccc1O` [N-(2-hydroxybenzyl)-D-alanine lauryl ester], for which the inhibition at 10 µM in the experiment with IL-1α is 35%. In addition, the inhibition at 50 µM with IL-1α amounted to 31%; in the experiment with NF-κB, 60%. Besides, the inhibition at 100 µM with NF-κB (concentration 100 μM) is 59%.
Turning to `CCCCCCCCCCCCNC(=O)CNCc1ccccc1O` [N-(2-hydroxybenzyl)glycine lauryl amide], in the experiment on IL-1α, the inhibition at 20 µM is 13% and the inhibition at 50 µM was 45%.
Turning to `CCOC(=O)[C@H](Cc1ccccc1)NCc1ccccc1O` [N-(2-hydroxybenzyl)-L-phenylalanine ethyl ester], the inhibition at 100 µM in the experiment with IL-1α (concentration 0.1 mM) turned out to be 25%.
In the case of `CCOC(=O)CNCc1ccccc1O` [N-(2-hydroxybenzyl)glycine ethyl ester], the inhibition at 10 µM in the experiment with collagenase (concentration 10 μM) was found to be 39%. Further, the inhibition at 100 µM with collagenase (concentration 100 μM) was 46%.
For `O=C(O)[C@H](CO)NCc1ccccc1O` [N-(2-hydroxybenzyl)-L-serine], the inhibition at 10000 µM with IL-1α came to 62%; in the experiment with NF-κB (concentration 10 mM), 17%. Further, the inhibition at 30000 µM was 70% with IL-1α (concentration 30 mM) and 34% in the experiment on NF-κB (concentration 30 mM).
On to `CCCCCCCCCCCCNC(=O)[C@H](CCCNC(=N)N)NCc1ccccc1O` [N-(2-hydroxybenzyl)-L-arginine lauryl amide], for which, in the experiment on NF-κB, the inhibition at 10 µM was 16% and the inhibition at 50 µM stood at 28%.
Regarding `CCOC(=O)[C@H](C)NCc1ccccc1O` [N-(2-hydroxybenzyl)-L-alanine ethyl ester], the inhibition at 200 µM in the experiment with IL-1α (concentration 0.2 mM) was determined as 61%; in the experiment on NF-κB (concentration 0.2 mM), 68%. Besides, the inhibition at 2000 µM is 100% in the experiment with IL-1α (concentration 2 mM) and 77% with NF-κB. Moreover, the inhibition at 500 µM in the experiment on AP-1 was 26%.
Turning to `CCOC(=O)[C@H](CCCNC(=N)N)NCc1ccccc1O` [N-(2-hydroxybenzyl)-L-arginine ethyl ester], in the experiment with IL-1α, the inhibition at 500 µM came out at 65%.
Turning to `CCCCCCCCCCCCOC(=O)[C@H](CO)NCc1ccccc1O` [N-(2-hydroxybenzyl)-L-serine lauryl ester], the results for the inhibition at 10 µM in the experiment on IL-1α and with AP-1 (concentration 10 μM) were 12% and 49%, respectively. Further, the inhibition at 100 µM in the experiment with IL-1α (concentration 100 μM) turned out to be 31%. In addition, the inhibition at 50 µM in the experiment with NF-κB was 79%. For the same compound, the inhibition at 1 µM in the experiment on AP-1 was 43%.
